Measured values from US20240270821A1, “GIP/GLP1/GCG TRI-RECEPTOR AGONISTS AND USES THEREOF” (priority 2023, published 2024).
Read-outs that look alike come from different tables or passages of the source. Starred links: 1 amine or outer side, 2 acyl side, 3 side chain; linkers in the order of their positions; H or OH if unused. Non-standard residues stand in square brackets, D forms with d. Groups on a side chain read outwards from the residue. No end group written: not given here. *: point of attachment. C20 diacid = O=C(O)CCCCCCCCCCCCCCCCCCC(=O)*; C18 diacid = O=C(O)CCCCCCCCCCCCCCCCC(=O)*; αMePhe(2-F) = C[C@](N)(Cc1ccccc1F)C(=O)O; γGlu = O=C(O)[C@H](CCC(=O)[*:2])N[*:1]; αMe4Pal = C[C@](N)(Cc1ccncc1)C(=O)O; αMeY = C[C@](N)(Cc1ccc(O)cc1)C(=O)O; 4Pal = N[C@@H](Cc1ccncc1)C(=O)O; αMeL = CC(C)C[C@](C)(N)C(=O)O; αMeS = C[C@](N)(CO)C(=O)O; Orn = NCCC[C@H](N)C(=O)O; AEEA = NCCOCCOCC(=O)O; Aib = CC(C)(N)C(=O)O

What was measured:
Assay type in all cases: cell-based
hGcgR = hGcgR (Homo sapiens, UniProt P47871); assay: Functional cAMP activation in the presence of 0.1% casein (no HSA); details: read-out: Relative cAMP EC50, hGcgR;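 note: intracellular cAMP rise after 30 min at 37 °C, read by HTRF against a cAMP standard curve, scaled from buffer only (0%) to maximal control ligand response (100%)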
Sequence of hGcgR (P47871 26-477): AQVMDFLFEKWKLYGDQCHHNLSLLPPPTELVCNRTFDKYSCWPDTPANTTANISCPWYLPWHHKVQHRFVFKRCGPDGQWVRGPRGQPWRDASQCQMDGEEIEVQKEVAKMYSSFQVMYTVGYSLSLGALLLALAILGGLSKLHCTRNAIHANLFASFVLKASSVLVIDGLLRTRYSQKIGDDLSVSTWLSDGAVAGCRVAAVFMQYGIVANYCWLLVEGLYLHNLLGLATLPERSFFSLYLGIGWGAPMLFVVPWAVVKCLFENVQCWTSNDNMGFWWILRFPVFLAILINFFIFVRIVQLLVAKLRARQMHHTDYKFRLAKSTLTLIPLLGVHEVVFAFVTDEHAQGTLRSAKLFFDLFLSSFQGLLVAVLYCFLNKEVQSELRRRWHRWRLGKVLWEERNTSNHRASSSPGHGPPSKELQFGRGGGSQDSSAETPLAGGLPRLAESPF

hGLP-1R [1] = molecular target: T1, hGLP-1R (Homo sapiens, UniProt P43220); assay: as above; details: read-out: Relative cAMP EC50, hGLP-1R;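 note: intracellular cAMP rise after 30 min at 37 °C read by HTRF, normalized between buffer only (0%) and maximal control ligand (100%), four-parameter variable-slope fit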
T1 sequence (P43220 24-463): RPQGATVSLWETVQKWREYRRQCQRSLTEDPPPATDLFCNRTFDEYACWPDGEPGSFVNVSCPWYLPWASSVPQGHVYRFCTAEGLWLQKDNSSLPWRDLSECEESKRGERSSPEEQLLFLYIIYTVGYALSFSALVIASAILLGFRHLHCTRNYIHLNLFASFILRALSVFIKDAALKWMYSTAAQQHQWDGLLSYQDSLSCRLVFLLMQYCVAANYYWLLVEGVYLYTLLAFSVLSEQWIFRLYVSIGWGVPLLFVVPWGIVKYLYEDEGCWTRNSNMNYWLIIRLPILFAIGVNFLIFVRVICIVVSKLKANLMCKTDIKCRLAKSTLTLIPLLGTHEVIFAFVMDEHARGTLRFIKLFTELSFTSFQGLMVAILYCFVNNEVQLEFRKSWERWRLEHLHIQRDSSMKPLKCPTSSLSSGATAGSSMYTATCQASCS

hGIPR [2] = molecular target: T2, hGIPR (Homo sapiens, UniProt P48546); assay: Functional cAMP activity in the presence of 1% HSA; details: read-out: cAMP Rel EC50, hGIPR
T2 sequence (P48546 22-466): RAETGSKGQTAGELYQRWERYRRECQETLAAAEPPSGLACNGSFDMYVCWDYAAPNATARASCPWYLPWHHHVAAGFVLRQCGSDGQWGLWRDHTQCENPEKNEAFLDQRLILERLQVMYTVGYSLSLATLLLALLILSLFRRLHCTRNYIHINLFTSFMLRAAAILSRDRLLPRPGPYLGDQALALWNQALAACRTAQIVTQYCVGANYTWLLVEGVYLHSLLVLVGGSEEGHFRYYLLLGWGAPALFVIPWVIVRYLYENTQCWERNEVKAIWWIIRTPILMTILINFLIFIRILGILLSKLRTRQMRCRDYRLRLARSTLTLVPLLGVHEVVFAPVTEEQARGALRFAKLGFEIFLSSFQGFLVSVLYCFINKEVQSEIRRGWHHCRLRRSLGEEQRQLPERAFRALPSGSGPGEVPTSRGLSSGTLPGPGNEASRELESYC

hGIPR [3] = molecular target: T2, hGIPR; assay: Functional cAMP activation in the presence of 0.1% casein (no HSA); details: read-out: Relative cAMP EC50, hGIPR;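 for Relative cAMP EC50, hGIPR: intracellular cAMP rise after 30 min at 37 °C read by HTRF against a standard curve, scaled between buffer alone (0%) and top control ligand concentration (100%), four-parameter fit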;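 for Relative cAMP EC50, hGLP-1R: intracellular cAMP rise after 30 min at 37 °C read by HTRF, normalized between buffer only (0%) and maximal control ligand (100%), four-parameter variable-slope fit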
hGLP-1R [4] = molecular target: T1, hGLP-1R; assay: Functional cAMP activity in the presence of 1% HSA; details: read-out: cAMP Rel EC50, hGLP-1R
human GcgR = human GcgR (Homo sapiens, UniProt P47871); assay: Functional cAMP activity in the presence of 1% HSA; details: read-out: cAMP Rel EC50, hGcgR
Sequence of human GcgR (P47871 26-477): as the sequence (P47871 26-477) above

[5] = 0.1% casein, no HSA, geometric mean
[6] = in the presence of 0.1% casein (no HSA), geometric mean

Y[Aib]QGT[αMePhe(2-F)]TSD[4Pal][αMeS]I[αMeL]LD[Orn]K([AEEA-γGlu-C18 diacid])AQ[αMe4Pal]EFI[dE][αMeY]LIEGGPPS[Aib][Orn]PPPSGSE-NH2 [Example 1198]
EC50 (hGcgR; [5]): 1.8 nM
EC50 (hGLP-1R [1]; [5]): 0.475 nM
EC50 (hGIPR [2]): 0.67 nM
EC50 (hGIPR [3]; [5]): 0.00663 nM
EC50 (hGLP-1R [4]): 61 nM
EC50 (human GcgR): 314 nM

H-Y[Aib]QGTFTSD[4Pal]SQ[αMeL]LDKK([AEEA-γGlu-γGlu-C18 diacid])AQ[αMe4Pal]AFIEYLIE[Aib]GPSSGAPPPSGS-NH2 [Example 860]
EC50 (hGcgR; [6]): 11 nM
EC50 (hGLP-1R [1]; [6]): 3.95 nM
EC50 (hGIPR [2]): 19.2 nM
EC50 (hGIPR [3]; [6]): 0.202 nM
EC50 (hGLP-1R [4]): 414 nM
EC50 (human GcgR): 565 nM

H-Y[Aib]QGTFTSDFS[Orn][αMeL]LDKK([AEEA-AEEA-γGlu-C18 diacid])AQ[Aib]AFIEYLLE[dA]GPSSG[4Pal]PPPSGH-NH2 [Example 257]
EC50 (hGcgR; [6]): 7.36 nM
EC50 (hGLP-1R [1]; [6]): 2.66 nM
EC50 (hGIPR [2]): 21 nM
EC50 (hGIPR [3]; [6]): 0.135 nM
EC50 (hGLP-1R [4]): 388 nM
EC50 (human GcgR): 1210 nM

H-Y[Aib]QGT[αMePhe(2-F)]TSD[4Pal]SILLDKK([γGlu-γGlu-C18 diacid])AQ[Aib]AFIEYLEEGGPSSGAPPPSGEEE-NH2 [Example 611]
EC50 (hGcgR): 6.8 nM
EC50 (hGLP-1R [1]): 1.63 nM
EC50 (hGIPR [2]): 7.35 nM
EC50 (hGIPR [3]): 0.126 nM
EC50 (hGLP-1R [4]): 146 nM
EC50 (human GcgR): 627 nM

H-Y[Aib]QGT[αMePhe(2-F)]TSD[4Pal][αMeS]I[αMeL]LD[Orn]K([AEEA-γGlu-C18 diacid])AQ[αMe4Pal]EFI[dE][αMeY]LVEGGPSSGAPPPGGE-NH2 [Example 1154]
EC50 (hGcgR; [6]): 6.42 nM
EC50 (hGLP-1R [1]; [6]): 0.344 nM
EC50 (hGIPR [2]): 0.954 nM
EC50 (hGIPR [3]; [6]): 0.00879 nM
EC50 (hGLP-1R [4]): 44.5 nM
EC50 (human GcgR): 320 nM

H-Y[Aib]QGTFTSDFSK[αMeL]LDKK([AEEA-γGlu-C20 diacid])AQ[Aib]AFIEYLLAGGPSSGEPPPSGG-NH2 [Example 6]
EC50 (hGcgR; [6]): 6.89 nM
EC50 (hGLP-1R [1]; [6]): 1.95 nM
EC50 (hGIPR [2]): 46.6 nM
EC50 (hGIPR [3]; [6]): 0.232 nM
EC50 (hGLP-1R [4]): 446 nM
EC50 (human GcgR): 1380 nM

H-Y[Aib]QGTFTSD[4Pal]SQ[αMeL]LD[Orn]K([AEEA-γGlu-γGlu-C18 diacid])AQ[αMe4Pal]AFIEYLIE[dA]GPSSGEPPPSGS-NH2 [Example 1018]
EC50 (hGcgR; [6]): 5.29 nM
EC50 (hGLP-1R [1]; [6]): 1.69 nM
EC50 (hGIPR [2]): 14.1 nM
EC50 (hGIPR [3]; [6]): 0.51 nM
EC50 (hGLP-1R [4]): 163 nM
EC50 (human GcgR): 568 nM

H-Y[Aib]QGT[αMePhe(2-F)]TSD[4Pal][αMeS]I[αMeL]LD[Orn]K([AEEA-γGlu-C18 diacid])AQ[αMe4Pal]EFI[dE][αMeY]LVEGGPSSGEPPPTGE-NH2 [Example 1153]
EC50 (hGcgR; [6]): 2.69 nM
EC50 (hGLP-1R [1]; [6]): 0.33 nM
EC50 (hGIPR [2]): 1.39 nM
EC50 (hGIPR [3]; [6]): 0.0109 nM
EC50 (hGLP-1R [4]): 52.7 nM
EC50 (human GcgR): 215 nM
